Where “and” joins values, the source holds several entries; their conditions need not be identical. Equal entries are not always repeated.
Columns and labels:
histone H3-pS10 = assay: Immunohistochemistry of OVCAR3 and HCC1569 tumours, histone H3-pS10; format: in vivo, mouse; settings: for Histone H3 pS10 H Score: individual tumours
[1] = In vitro blood/plasma ratio and fraction unbound in plasma; format: in vitro ADME; settings: plasma, CD-1 mouse, read-out: fraction unbound (fu) plasma
Method: The extraction of whole blood samples was performed by protein precipitation using four volumes of acetonitrile. The sample extracts were analysed using a Transcend LX2 Ultimate 3000 liquid chromatography system coupled to a Thermo Altis triple quadrupole electrospray mass spectrometer (Thermo Fisher Scientific) operated in positive mode. Separations were performed using a 2 × 50 mm, 2.8 µm Pursuit XRS C8 HPLC column (Agilent). […] Samples were quantified against a ten-point linear standard curve and three levels of quality control samples.

HCC1569 cells [2] = assay: Flow cytometry, EdU with histone H3-pS10 or Lamin A/C-pS22; format: cell-based; settings: 3 replicates
Method: Cells were pulsed with 20 μM EdU (Life Technologies cat. no. A10044) for 30 min, collected by trypsinization, resuspended as single cells, washed once in PBS and pelleted at 600g for 3 min at 4 °C. All subsequent centrifugations were performed in this manner. Cells were fixed in 4% PFA/PBS for 15 min at room temperature, excess ice cold PBSB (1% BSA in PBS, […] filtered) was added before pelleting. Cells were resuspended in permeabilization buffer (PBSB, 0.5% Triton-X 100) and incubated at room temperature for 15 min. Excess blocking buffer (PBSB, 0.1% NP-40) was added, cells were pelleted, resuspended in blocking buffer containing primary antibodies and incubated at room temperature for 1 h. Excess blocking buffer containing secondary antibodies was added, cells were pelleted, resuspended in blocking buffer and incubated at room temperature for 30 min. Excess blocking buffer was added, cells were pelleted and washed one additional time in PBSB. […] Excess PBSB was added, cells were pelleted and washed one additional time in PBSB. Cells were resuspended in analysis buffer (PBSB, 0.5 µg ml^−1 DAPI, […] RNase A (Sigma-Aldrich, cat. no. R4875)) and incubated at 37 °C for 30 min or left at 4 °C overnight. Cells were analysed at the LTRI flow cytometry facility on a Fortessa X-20 (Becton Dickinson) using […] v8.0.1 with at least 9,000 events collected and analysed using FlowJo v10.

CDK2 = assay: Immune complex histone H1 kinase assay, IP-CDK2, FT282 CCNE1-high cells; format: cell-based; settings: 24 h
Method: Protein concentration was determined by Bradford assay (Thermo Fisher Scientific cat. no. 1856209). For immunoprecipitation of kinases, 200 μg of extract was diluted in 750 μl EBN buffer and 10 μg of CDK1 or CDK2 primary antibody agarose bead conjugates were added to the extract and rotated at 4 °C overnight. Immunoprecipitates were pelleted by centrifugation at 2,500g at 4 °C for 5 min and washed 2× in 750 μl EBN followed by 1 ml EB (80 mM β-glycerol phosphate, 15 mM MgCl2, 20 mM EGTA, 1 mg ml^−1 ovalbumin). After the final wash, the immunoprecipitates were resuspended in 500 μl EB and split into two samples. One sample was used for immunoblot analysis and the other used for kinase assays. Following removal of the final wash, immunoprecipitates were resuspended in 11 μl histone H1 kinase assay buffer (80 mM β-glycerol phosphate, 15 mM MgCl2, 20 mM EGTA, 1 mg ml^−1 ovalbumin, 10 mM DTT, 0.15 μg μl^−1 histone H1 (Sigma-Aldrich, cat. no. H1917), 22 μM ATP, 0.05 μCi μl^−1 γ^32P-ATP (Perkin Elmer NEG502A250UC), pH 7.3) and incubated at room temperature for 30 min. Reactions were quenched by addition of 5 μl 6× sample buffer (60% glycerol, 6% SDS, 0.03% bromophenol blue, 1,500 mM Tris-Cl pH 6.8, 60 mM DTT) and resolved by SDS–PAGE. […] 32P-H1 band intensity was quantified using ImageJ v2.0.0.

HCC1569 cells [3] = assay: QIBC of pan-γH2AX; format: cell-based; settings: for QIBC quantitation of pan-gH2AX staining / cells with pan-γH2AX (QIBC): HCC1569; for QIBC quantitation of pan-gH2AX staining: 3 replicates
Method: Before collection, cells were pulsed with 20 μM EdU (5-ethynyl-2-deoxyuridine, Life Technologies cat. no. A10044) for 30 min and then washed with PBS and fixed with 4% paraformaldehyde (PFA) in PBS for 15 min at room temperature. Cells were then rinsed with PBS and permeabilized using 0.3% Triton X-100/PBS for 30 min. For chromatin-bound MCM measurements, cells were pre-extracted for 15 min on ice with CSK buffer (300 mM sucrose, 100 mM NaCl, 3 mM MgCl2, 10 mM PIPES pH 7.0, 0.5% v/v Triton-X 100) before PFA fixation. Cells were washed with PBS and incubated in blocking buffer (10% goat serum (Sigma cat. no. G6767), 0.5% NP-40 (Sigma-Aldrich, cat. no. I3021), 5% w/v saponin (Sigma-Aldrich, cat. no. 84510), diluted in PBS) for 30 min. Fresh blocking buffer containing primary antibodies was added for 2 h. Cells were rinsed three times with PBS and then blocking buffer, with secondary antibodies and 0.4 μg ml^−1 DAPI (4,6-diamidino-2-phenylindole, Sigma-Aldrich, cat. no. D9542) was added for 1 h. After rinsing with PBS, immunocomplexes were fixed again using 4% PFA/PBS for 5 min.
For high-throughput analysis of nuclear γH2AX, 3,000 cells per well were seeded in 96-well plates and cultured for up to 72 h depending on the experiment. Cells were fixed, permeabilized and stained in the same manner as immunofluorescence described above. Wells were filled with 200 μl PBS and images were acquired at the Network Biology Collaborative Centre (LTRI) on an InCell Analyzer 6000 automated microscope (GE Life Sciences) with a 20× objective. Image analysis was performed using Cellprofiler 3.1.9 and RStudio v1.2.5019[57] (Supplementary Fig. 4).

## Cc1cc2c(C(N)=O)c(N)n(-c3c(C)ccc(O)c3C)c2nc1C [RP-6306]
Histone H3-pS10; HCC1569 tumours, Dose 7.5 mg/kg
  Histone H3 pS10 H Score: 7.247 and 5.87 and 4.179
Histone H3-pS10; HCC1569 tumours, Dose 20 mg/kg
  Histone H3 pS10 H Score: 4.15 and 6.218
Histone H3-pS10; IHC
  levels of histone H3 pS10 in tumours: dose-dependent increases
Histone H3-pS10; OVCAR3 tumours, Dose 1 mg/kg
  Histone H3 pS10 H Score: 7.901 and 8.05 and 7.431 and 8.829
Histone H3-pS10; OVCAR3 tumours, Dose 7.5 mg/kg
  Histone H3 pS10 H Score: 9.985 and 9.464 and 11.6025 and 10.5702
Histone H3-pS10; OVCAR3 tumours, Dose 20 mg/kg
  Histone H3 pS10 H Score: 10.1592 and 14.4999 and 11.8974 and 10.6631
[1]
  fraction unbound: 0.185
HCC1569 cells [2]; 150 nM RP-6306 for 24 h
  double-positive staining for EdU and Lamin A/C-pS22 by FACS: 18.5 and 14.1
  double-positive staining for EdU and histone H3-pS10 by FACS: 5.93 and 4.4 and 6.33
HCC1569 cells [2]; 500 nM RP-6306 for 24 h
  double-positive staining for EdU and Lamin A/C-pS22 by FACS: 29.2 and 23.9 and 27.4
  double-positive staining for EdU and histone H3-pS10 by FACS: 8.28 and 7.28 and 10.2
CDK2
  CDK2 kinase activity: not CDK2 kinase
HCC1569 cells [3]; 1 h after addition of 500 nM RP-6306
  QIBC quantitation of pan-gH2AX staining: 0.8235 and 1.545 and 0.3077
HCC1569 cells [3]; 2 h after addition of 500 nM RP-6306
  QIBC quantitation of pan-gH2AX staining: 0.5882 and 2.273 and 0.1538
HCC1569 cells [3]; 4 h after addition of 500 nM RP-6306
  QIBC quantitation of pan-gH2AX staining: 1.294 and 5.727 and 2
HCC1569 cells [3]; 6 h after addition of 500 nM RP-6306
  QIBC quantitation of pan-gH2AX staining: 2.941 and 6.545 and 2.538
HCC1569 cells [3]; 12 h after addition of 500 nM RP-6306
  QIBC quantitation of pan-gH2AX staining: 9.294 and 18.1818 and 14.3846
HCC1569 cells [3]; RP-6306 31 nM
  cells with pan-γH2AX (QIBC): 1.5625 and 1.179 and 1.6
HCC1569 cells [3]; RP-6306 62 nM
  cells with pan-γH2AX (QIBC): 5.1875 and 3.571 and 3.6
HCC1569 cells [3]; RP-6306 500 nM
  cells with pan-γH2AX (QIBC): 29.75 and 26.5 and 21.2
HCC1569 cells [3]; HCC1569 cells
  pan-γH2AX induction: induced pan-γH2AX
